Experimental data taken from PubChem BioAssay AID200 (DTP/NCI, 2004).
“And” between values parts separate entries of the source, which are not always exact repeats. Equal entries are not always repeated. Inconclusive results and toxic doses are left out. How the source made its calls: active means survival T/C of 150% or more; inactive means T/C below 125% in these data.

Tested on: B6C3F1 mice, B16 melanoma ip, median survival T/C
Test: NCI In Vivo Anticancer Drug Screen. Data for tumor model B16 Melanoma (intraperitoneal) in B6C3F1 mice
Details: endpoint: median survival time, higher = longer survival
In short: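 Mice bearing transplanted tumor were dosed with compound or vehicle, and survival was recorded. Activity is expressed as the treated-group measurement (T) divided by the vehicle control measurement (C).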

[1] = dose: 100.0 mg/kg/injection, schedule: Q01DX009 (ip), vehicle: saline
[2] = dose: 200.0 mg/kg/injection, schedule: Q01DX009 (ip), vehicle: saline
[3] = dose: 400.0 mg/kg/injection, schedule: Q01DX009 (ip), vehicle: saline
[4] = dose: 12.5 mg/kg/injection, schedule: Q01DX009 (ip), vehicle: saline with Tween-80
[5] = dose: 25.0 mg/kg/injection, schedule: Q01DX009 (ip), vehicle: saline with Tween-80
[6] = dose: 50.0 mg/kg/injection, schedule: Q01DX009 (ip), vehicle: saline with Tween-80
[7] = dose: 100.0 mg/kg/injection, schedule: Q01DX009 (ip), vehicle: saline with Tween-80
[8] = dose: 200.0 mg/kg/injection, schedule: Q01DX009 (ip), vehicle: saline with Tween-80
[9] = dose: 0.62 mg/kg/injection, schedule: Q01DX009 (ip), vehicle: Klucel (hydroxypropylcellulose) (HPC)
[10] = dose: 2.5 mg/kg/injection, schedule: Q01DX009 (ip), vehicle: Klucel (hydroxypropylcellulose) (HPC)
[11] = dose: 10.0 mg/kg/injection, schedule: Q01DX009 (ip), vehicle: Klucel (hydroxypropylcellulose) (HPC)
[12] = dose: 3.12 mg/kg/injection, schedule: Q01DX009 (ip), vehicle: Klucel (hydroxypropylcellulose) (HPC)
[13] = dose: 6.25 mg/kg/injection, schedule: Q01DX009 (ip), vehicle: Klucel (hydroxypropylcellulose) (HPC)
[14] = dose: 12.5 mg/kg/injection, schedule: Q01DX009 (ip), vehicle: Klucel (hydroxypropylcellulose) (HPC)
[15] = dose: 25.0 mg/kg/injection, schedule: Q01DX009 (ip), vehicle: saline
[16] = dose: 50.0 mg/kg/injection, schedule: Q01DX009 (ip), vehicle: saline

Measured: T/C

CCC/C=C/C=C/C(=O)OC1/C(=C/C(=O)OC)CC2CC(C(C)O)OC(=O)CC(O)CC3CC(OC(C)=O)C(C)(C)C(O)(CC4C/C(=C/C(=O)OC)CC(/C=C/C(C)(C)C1(O)O2)O4)O3 (stereo unspecified)
inactive: dose: 4.69 micrograms/kg/injection, schedule: Q01DX009 (ip), vehicle: saline + alcohol 94 % of control | dose: 9.38 micrograms/kg/injection, schedule: Q01DX009 (ip), vehicle: saline + alcohol 100 % of control | dose: 18.75 micrograms/kg/injection, schedule: Q01DX009 (ip), vehicle: saline + alcohol 116 % of control and 104 % of control | dose: 37.5 micrograms/kg/injection, schedule: Q01DX009 (ip), vehicle: saline + alcohol 111 % of control and 96 % of control | dose: 75.0 micrograms/kg/injection, schedule: Q01DX009 (ip), vehicle: saline + alcohol 99 % of control and 105 % of control

NC(CCCCNC=O)C(=O)O (stereo unspecified)
inactive: [1] 110 % of control | [2] 121 % of control | [3] 116 % of control

CC[C@H](CC[C@@H](C)C1CC[C@H]2[C@@H]3CC=C4C[C@@H](OP(=O)(N5CC5)N5CC5)CC[C@]4(C)[C@H]3CC[C@]12C)C(C)C (stereo partly specified)
inactive: [4] 95 % of control and 99 % of control | [5] 110 % of control and 101 % of control | [6] 90 % of control and 97 % of control | [7] 91 % of control and 94 % of control | [8] 93 % of control and 95 % of control

COc1cc2cc3c(c(O)c2c(O)c1/C=C/C(C)C)C(=O)CC(C)(OC(C)=O)C3 (stereo unspecified)
inactive: [9] 98 % of control | dose: 0.63 mg/kg/injection, schedule: Q01DX009 (ip), vehicle: Klucel (hydroxypropylcellulose) (HPC) 104 % of control | dose: 1.25 mg/kg/injection, schedule: Q01DX009 (ip), vehicle: Klucel (hydroxypropylcellulose) (HPC) 109 % of control and 112 % of control | [10] 115 % of control and 122 % of control | [11] 100 % of control

CC(C)(O)/C=C/C(=O)[C@](C)(O)[C@H]1[C@H](O)C[C@@]2(C)[C@@H]3CC=C4[C@@H](C=C(O)C(=O)C4(C)C)[C@]3(C)C(=O)C[C@]12C
inactive: dose: 0.25 mg/kg/injection, schedule: Q01DX009 (ip), vehicle: water 99 % of control | dose: 0.5 mg/kg/injection, schedule: Q01DX009 (ip), vehicle: water 89 % of control | dose: 1.0 mg/kg/injection, schedule: Q01DX009 (ip), vehicle: water 89 % of control

CSCCC(NC(=O)CN)C(=O)O (stereo unspecified)
inactive: [1] 87 % of control | [2] 90 % of control | [3] 91 % of control

O=C1NC(=O)C2C3C=CC(C12)C1C2C(=O)NC(=O)C2C31 (stereo unspecified)
inactive: [4] 108 % of control and 100 % of control | dose: 19.7 mg/kg/injection, schedule: Q01DX009 (ip), vehicle: water 107 % of control | [5] 114 % of control and 104 % of control | dose: 32.9 mg/kg/injection, schedule: Q01DX009 (ip), vehicle: water 98 % of control | [6] 117 % of control | dose: 54.8 mg/kg/injection, schedule: Q01DX009 (ip), vehicle: water 117 % of control | [7] 120 % of control and 124 % of control

CN(C)CCNc1ccc(NCCN(C)C)c2c1C(=O)c1ccccc1C2=O
inactive: dose: 20.0 mg/kg/injection, schedule: Q01DX009 (ip), vehicle: distilled water + Tween-80 117 % of control

C[C@@H]1C[C@H]2[C@@H]3CCC4=CC(=O)C=C[C@]4(C)[C@@]3(F)[C@@H](O)C[C@]2(C)[C@@]1(O)C(=O)CO
inactive: [12] 109 % of control | [13] 118 % of control | [14] 104 % of control

CC(C)C1OC(=O)/C=C/C=C/C=C/C=C/C=C/CC(O)C(C)C(O)CC(O)CC(O)CC(O)CC(O)CC(O)CC(O)/C=C/C1C (stereo unspecified)
inactive: dose: 1.56 mg/kg/injection, schedule: Q01DX009 (ip), vehicle: saline 101 % of control | dose: 3.12 mg/kg/injection, schedule: Q01DX009 (ip), vehicle: saline 100 % of control | dose: 6.25 mg/kg/injection, schedule: Q01DX009 (ip), vehicle: saline 102 % of control

[Cl][Pt+2][Cl].[NH-]c1cc(Cl)c(Cl)c(Cl)c1[NH-]
inactive: dose: 40.0 mg/kg/injection, schedule: Q01DX009 (ip), vehicle: distilled water + Tween-80 109 % of control | dose: 80.0 mg/kg/injection, schedule: Q01DX009 (ip), vehicle: distilled water + Tween-80 102 % of control

Oc1ccc2ccccc2c1N=Nc1ccc(Cl)cc1
inactive: [6] 115 % of control and 118 % of control | [7] 114 % of control and 103 % of control | [8] 92 % of control and 101 % of control | dose: 400.0 mg/kg/injection, schedule: Q01DX009 (ip), vehicle: saline with Tween-80 109 % of control

[F][Sn]([F])([c]1ccccc1)[c]1ccccc1
inactive: dose: 1.56 mg/kg/injection, schedule: Q01DX009 (ip), vehicle: Klucel (hydroxypropylcellulose) (HPC) 98 % of control | [12] 87 % of control | [13] 104 % of control | [14] 103 % of control

Cc1c2ccccc2cc2cccc[n+]12
inactive: dose: 2.5 mg/kg/injection, schedule: Q01DX009 (ip), vehicle: saline 106 % of control and 107 % of control | dose: 5.0 mg/kg/injection, schedule: Q01DX009 (ip), vehicle: saline 101 % of control and 104 % of control | dose: 10.0 mg/kg/injection, schedule: Q01DX009 (ip), vehicle: saline 102 % of control and 107 % of control | dose: 20.0 mg/kg/injection, schedule: Q01DX009 (ip), vehicle: saline 99 % of control and 101 % of control

COc1cccc2c1C(=O)c1c(O)c3c(c(O)c1C2=O)C[C@@](O)(C(C)=O)C[C@@H]3OC1CC(N2CCOCC2)C(O)C(C)O1 (stereo partly specified)
inactive: dose: 0.06 mg/kg/injection, schedule: Q01DX001 (ip), vehicle: water 120 % of control | dose: 0.12 mg/kg/injection, schedule: Q01DX001 (ip), vehicle: water 123 % of control | dose: 62.5 micrograms/kg/injection, schedule: Q01DX001 (ip), vehicle: water 113 % of control | dose: 125.0 micrograms/kg/injection, schedule: Q01DX001 (ip), vehicle: water 122 % of control

Nc1ccc(C(OC(=O)c2cc3ccccc3c(Cc3c(O)c(C(=O)OC(c4ccc(N)cc4)(c4ccc(N)cc4)c4ccc(N)cc4)cc4ccccc34)c2O)(c2ccc(N)cc2)c2ccc(N)cc2)cc1
inactive: dose: 0.78 mg/kg/injection, schedule: Q01DX009 (ip), vehicle: saline with Tween-80 112 % of control and 96 % of control | dose: 3.12 mg/kg/injection, schedule: Q01DX009 (ip), vehicle: saline with Tween-80 111 % of control and 107 % of control | dose: 3.13 mg/kg/injection, schedule: Q01DX009 (ip), vehicle: saline with Tween-80 104 % of control

c1ccc2c(NCCCCCCNc3c4ccccc4nc4ccccc34)c3ccccc3nc2c1
inactive: [9] 116 % of control | dose: 1.25 mg/kg/injection, schedule: Q01DX009 (ip), vehicle: water 111 % of control and 116 % of control | dose: 2.5 mg/kg/injection, schedule: Q01DX009 (ip), vehicle: water 112 % of control and 122 % of control | dose: 5.0 mg/kg/injection, schedule: Q01DX009 (ip), vehicle: water 123 % of control
active: dose: 1.58 mg/kg/injection, schedule: Q01DX009 (ip), vehicle: Klucel (hydroxypropylcellulose) (HPC) 154 % of control | dose: 2.37 mg/kg/injection, schedule: Q01DX009 (ip), vehicle: Klucel (hydroxypropylcellulose) (HPC) 179 % of control | [10] 151 % of control | dose: 5.0 mg/kg/injection, schedule: Q01DX009 (ip), vehicle: Klucel (hydroxypropylcellulose) (HPC) 189 % of control | dose: 5.33 mg/kg/injection, schedule: Q01DX009 (ip), vehicle: Klucel (hydroxypropylcellulose) (HPC) 213 % of control | dose: 8.0 mg/kg/injection, schedule: Q01DX009 (ip), vehicle: Klucel (hydroxypropylcellulose) (HPC) 199 % of control | [11] 200 % of control | dose: 10.0 mg/kg/injection, schedule: Q01DX009 (ip), vehicle: water 153 % of control | dose: 12.0 mg/kg/injection, schedule: Q01DX009 (ip), vehicle: Klucel (hydroxypropylcellulose) (HPC) 190 % of control | dose: 20.0 mg/kg/injection, schedule: Q01DX009 (ip), vehicle: Klucel (hydroxypropylcellulose) (HPC) 206 % of control | dose: 20.0 mg/kg/injection, schedule: Q01DX009 (ip), vehicle: water 162 % of control

O=C[C@@H](CO)O[C@H](C=O)c1c[nH]c(=O)[nH]c1=O
inactive: [15] 105 % of control | [16] 110 % of control

CC(=O)Oc1c(C)[nH]ccc1=O
inactive: [15] 93 % of control and 104 % of control | [16] 108 % of control and 105 % of control | [1] 115 % of control and 94 % of control | [2] 94 % of control and 106 % of control

CC(=O)C(=O)O.CC(=O)C(=O)O.[NH-]C1CCCCC1[NH-].[Pt+2] (stereo unspecified)
inactive: dose: 3.12 mg/kg/injection, schedule: Q01DX009 (ip), vehicle: other 122 % of control
